The source of these data is US5698522A, “6-position modified decapeptide LHRH antagonists” (Abbott Laboratories, priority 1995, dated 1997).

*1 amine or outer side, *2 acyl side, *3 side chain or, on linkers, in order; H or OH if unused. Where a SMILES comes first, the peptide text is derived from it. Side-chain parts run from the residue outwards. [ ]: non-standard residue; d: D form. The star is where a group is joined. Shikimoyl = O=C(C1=C[C@@H](O)[C@@H](O)[C@H](O)C1)*; Biotin = O=C1N[C@H]2[C@H](CS[C@H]2CCCCC(=O)*)N1; Quinoline3carbonyl = O=C(c1cnc2ccccc2c1)*; dPhe(4-Cl) = N[C@H](Cc1ccc(Cl)cc1)C(=O)O; d2Nal = N[C@H](Cc1ccc2ccccc2c1)C(=O)O; Lys(iPr) = CC(C)NCCCC[C@H](N)C(=O)O; NMeY = CN[C@@H](Cc1ccc(O)cc1)C(=O)O; Ethylenediamine = C(CN[*:2])N[*:1]; d3Pal = N[C@H](Cc1cccnc1)C(=O)O; Salicyloyl = O=C(c1ccccc1O)*; Nicotinoyl = O=C(c1cccnc1)*; dOrn = NCCC[C@@H](N)C(=O)O; 2Furoyl = O=C(c1ccco1)*; CO = O=C([*:1])[*:2]; azaGly = NNC(=O)O; βAla = NCCC(=O)O

The experiment addresses T1, LHRH receptor (Rattus norvegicus, UniProt P30969).
T1 construct: endogenous in cells
T1 sequence (P30969 1-327): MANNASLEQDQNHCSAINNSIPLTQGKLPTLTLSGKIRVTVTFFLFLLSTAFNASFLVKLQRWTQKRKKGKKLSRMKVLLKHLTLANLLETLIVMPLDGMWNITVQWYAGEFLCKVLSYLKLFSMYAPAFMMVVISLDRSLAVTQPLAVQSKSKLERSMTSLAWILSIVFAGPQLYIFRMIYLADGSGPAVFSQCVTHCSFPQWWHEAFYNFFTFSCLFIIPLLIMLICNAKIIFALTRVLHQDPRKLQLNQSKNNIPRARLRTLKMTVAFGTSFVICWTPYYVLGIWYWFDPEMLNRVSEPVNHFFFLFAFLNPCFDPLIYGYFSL
Briefly: in vitro LHRH antagonist potency (pA2) against the agonist leuprolide. The following applies: negative logarithm of the antagonist concentration which shifts the response curve produced by the agonist leuprolide to two-fold higher concentration. The format is cell-based. On the procedure:
Representative compounds of the present invention were evaluated in in vitro tests for receptor binding (pKI) and for LHRH antagonist potency (pA2). The tests employed the methods detailed in F. Haviv, et al., J. Med. Chem., 32: 2340-2344 (1989). The receptor binding affinities (pKI) are the negative logarithms of the equilibtirum dissociation constants (pA2) are the negative logarithms of the concentration of antagonist which shift the response curve roduced by the agonist leuprolide to two-fold higher concentration. (Leuprolide is the LHRH agonist having the structure 5-oxo-Pro^1 -His^2 -Trp^3 -Ser^4 -Tyr^5 -D-Leu^6 -Leu^7 -Arg^8 -Pro^9 -NHEt and is disclosed and claimed in U.S. Pat. No. 4,005,063.) Typically pA2 values of 9.5 or greater are indicative of good LHRH antagonist potency.
By Kb is commonly meant the equilibrium dissociation constant of an antagonist, usually derived from a functional assay. For `CC(=O)N[C@H](Cc1ccc2ccccc2c1)C(=O)N[C@H](Cc1ccc(Cl)cc1)C(=O)N[C@H](Cc1cccnc1)C(=O)N[C@@H](CO)C(=O)N(C)[C@@H](Cc1ccc(O)cc1)C(=O)N[C@H](CCCCNC(=O)NCCNC(=O)c1cccnc1)C(=O)N[C@@H](CC(C)C)C(=O)N[C@@H](CCCNC(=N)N)C(=O)N1CCC[C@H]1C(=O)N[C@H](C)C(N)=O` [Example 14, NAc-D2Nal^1 -D4ClPhe^2 -D3Pal^3 -Ser^4 -NMeTyr^5 -DLys[N-epsilon-(N'-Carbonyl-Diaminoethane-N"-Nicotinyl)]^6 -Leu^7 -Arg^8 -Pro^9 -DAla^10 NH2] (Ac-[d2Nal][dPhe(4-Cl)][d3Pal]S[NMeY][dK]([CO-Ethylenediamine-Nicotinoyl])LRP[dA]-NH2), the antagonist dissociation constant (Kb) is 0.166 nM.

For the compound `CC(=O)N[C@H](Cc1ccc2ccccc2c1)C(=O)N[C@H](Cc1ccc(Cl)cc1)C(=O)N[C@H](Cc1cccnc1)C(=O)N[C@@H](CO)C(=O)N(C)[C@@H](Cc1ccc(O)cc1)C(=O)N[C@H](CCCCNC(=O)NNC(=O)c1ccco1)C(=O)N[C@@H](CC(C)C)C(=O)N[C@@H](CCCNC(=N)N)C(=O)N1CCC[C@H]1C(=O)N[C@H](C)C(N)=O` [Example 37a, NAc-D2Nal^1 -D4ClPhe^2 -D3Pal^3 -Ser^4 -NMeTyr^5 -DLys(N-epsilon-Azagly-2-Furoyl)^6 -Leu^7 -Arg^8 -Pro^9 -DAla^10 NH2] (Ac-[d2Nal][dPhe(4-Cl)][d3Pal]S[NMeY][dK]([azaGly-2Furoyl])LRP[dA]-NH2), the Kb is 0.0166 nM.

Take `CC(=O)N[C@H](Cc1ccc2ccccc2c1)C(=O)N[C@H](Cc1ccc(Cl)cc1)C(=O)N[C@H](Cc1cccnc1)C(=O)N[C@@H](CO)C(=O)N(C)[C@@H](Cc1ccc(O)cc1)C(=O)N[C@H](CCCCNC(=O)[C@@H](CO)NC(=O)c1cccnc1)C(=O)N[C@@H](CC(C)C)C(=O)N[C@@H](CCCNC(=N)N)C(=O)N1CCC[C@H]1C(=O)N[C@H](C)C(N)=O` [Example 7, NAc-D2Nal^1 -D4ClPhe^2 -D3Pal^3 -Ser^4 -NMeTyr^5 -DLys(N-epsilon-DSer-Nicotinyl)^6 -Leu^7 -Arg^8 -Pro^9 -DAla^10 NH2] (Ac-[d2Nal][dPhe(4-Cl)][d3Pal]S[NMeY][dK]([dS-Nicotinoyl])LRP[dA]-NH2): the Kb was 0.00891 nM.

On to `CC(=O)N[C@H](Cc1ccc2ccccc2c1)C(=O)N[C@H](Cc1ccc(Cl)cc1)C(=O)N[C@H](Cc1cccnc1)C(=O)N[C@@H](CO)C(=O)N(C)[C@@H](Cc1ccc(O)cc1)C(=O)N[C@H](CCCNC(=O)[C@@H](CO)NC(=O)c1cccnc1)C(=O)N[C@@H](CC(C)C)C(=O)N[C@@H](CCCNC(=N)N)C(=O)N1CCC[C@H]1C(=O)N[C@H](C)C(N)=O` [Example 49b, NAc-D2Nal^1 -D4ClPhe^2 -D3Pal^3 -Ser^4 -NMeTyr^5 -DOrn(N-epsilon-DSer-Nicotinyl)^6 -Leu^7 -Arg^8 -Pro^9 -DAla^10 NH2] (Ac-[d2Nal][dPhe(4-Cl)][d3Pal]S[NMeY][dOrn]([dS-Nicotinoyl])LRP[dA]-NH2), for which the antagonist dissociation constant (Kb) is 0.0155 nM.

Take `CC(=O)N[C@H](Cc1ccc2ccccc2c1)C(=O)N[C@H](Cc1ccc(Cl)cc1)C(=O)N[C@H](Cc1cccnc1)C(=O)N[C@@H](CO)C(=O)N(C)[C@@H](Cc1ccc(O)cc1)C(=O)N[C@H](CCCCNC(=O)[C@H](NC(=O)C1=C[C@@H](O)[C@@H](O)[C@H](O)C1)[C@H](C)O)C(=O)N[C@@H](CC(C)C)C(=O)N[C@@H](CCCNC(=N)N)C(=O)N1CCC[C@H]1C(=O)N[C@H](C)C(N)=O` [Example 38d, NAc-D2Nal^1 -D4ClPhe^2 -D3Pal^3 -Ser^4 -NMeTyr^5 -DLys(N-epsilon-DThr-Shikimyl)^6 -Leu^7 -Arg^8 -Pro^9 -DAla^10 NH2] (Ac-[d2Nal][dPhe(4-Cl)][d3Pal]S[NMeY][dK]([dT-Shikimoyl])LRP[dA]-NH2): the Kb is 0.02 nM.

As to `CC(=O)N[C@H](Cc1ccc2ccccc2c1)C(=O)N[C@H](Cc1ccc(Cl)cc1)C(=O)N[C@H](Cc1cccnc1)C(=O)N[C@@H](CO)C(=O)N(C)[C@@H](Cc1ccc(O)cc1)C(=O)N[C@H](CCCCNC(=O)CNC(=O)c1ccccc1O)C(=O)N[C@@H](CC(C)C)C(=O)N[C@@H](CCCCNC(C)C)C(=O)N1CCC[C@H]1C(=O)N[C@H](C)C(N)=O` [Example 19b, NAc-D2Nal^1 -D4ClPhe^2 -D3Pal^3 -Ser^4 -NMeTyr^5 -DLys[N-epsilon-Gly-Salicyl]^6 -Leu^7 -Lys(N-epsilon-Isopropyl)^8 -Pro^9 -DAla^10 NH2] (Ac-[d2Nal][dPhe(4-Cl)][d3Pal]S[NMeY][dK]([Gly-Salicyloyl])L[Lys(iPr)]P[dA]-NH2), the Kb was 0.00661 nM.

Regarding `CC(=O)N[C@H](Cc1ccc2ccccc2c1)C(=O)N[C@H](Cc1ccc(Cl)cc1)C(=O)N[C@H](Cc1cccnc1)C(=O)N[C@@H](CO)C(=O)N(C)[C@@H](Cc1ccc(O)cc1)C(=O)N[C@H](CCCCNC(=O)CNC(=O)CCCC[C@@H]1SC[C@@H]2NC(=O)N[C@@H]21)C(=O)N[C@@H](CC(C)C)C(=O)N[C@@H](CCCCNC(C)C)C(=O)N1CCC[C@H]1C(=O)N[C@H](C)C(N)=O` [Example 64, NAc-D2Nal^1 -D4ClPhe^2 -D3Pal^3 -Ser^4 -NMeTyr^5 -DLys(N-epsilon-Gly-Biotinyl)^6 -Leu^7 -Lys(N-epsilon-isopropyl)^8 -Pro^9 -DAla^10 NH2] (Ac-[d2Nal][dPhe(4-Cl)][d3Pal]S[NMeY][dK]([Gly-Biotin])L[Lys(iPr)]P[dA]-NH2), the Kb is 0.0115 nM.

As to `CC(=O)N[C@H](Cc1ccc2ccccc2c1)C(=O)N[C@H](Cc1ccc(Cl)cc1)C(=O)N[C@H](Cc1cccnc1)C(=O)N[C@@H](CO)C(=O)N(C)[C@@H](Cc1ccc(O)cc1)C(=O)N[C@H](CCCCNC(=O)CCNC(=O)c1cccnc1)C(=O)N[C@@H](CC(C)C)C(=O)N[C@@H](CCCCNC(C)C)C(=O)N1CCC[C@H]1C(=O)N[C@H](C)C(N)=O` [Example 4a] (Ac-[d2Nal][dPhe(4-Cl)][d3Pal]S[NMeY][dK]([βAla-Nicotinoyl])L[Lys(iPr)]P[dA]-NH2), the Kb was 0.00562 nM.

Take `CC(=O)N[C@H](Cc1ccc2ccccc2c1)C(=O)N[C@H](Cc1ccc(Cl)cc1)C(=O)N[C@H](Cc1cccnc1)C(=O)N[C@@H](CO)C(=O)N(C)[C@@H](Cc1ccc(O)cc1)C(=O)N[C@H](CCCCNC(=O)NNC(=O)c1ccccc1O)C(=O)N[C@@H](CC(C)C)C(=O)N[C@@H](CCCCNC(C)C)C(=O)N1CCC[C@H]1C(=O)N[C@H](C)C(N)=O` [Example 5c, NAc-D2Nal^1 -D4ClPhe^2 -D3Pal^3 -Ser^4 -NMeTyr^5 -DLys(N-epsilon-Azagly-Salicyl)^6 -Leu^7 -Lys(N-epsilon-Isopropyl)^8 -Pro^9 -DAla^10 NH2] (Ac-[d2Nal][dPhe(4-Cl)][d3Pal]S[NMeY][dK]([azaGly-Salicyloyl])L[Lys(iPr)]P[dA]-NH2): the Kb is 0.0132 nM.

With `CC(=O)N[C@H](Cc1ccc2ccccc2c1)C(=O)N[C@H](Cc1ccc(Cl)cc1)C(=O)N[C@H](Cc1cccnc1)C(=O)N[C@@H](CO)C(=O)N(C)[C@@H](Cc1ccc(O)cc1)C(=O)N[C@H](CCCCNC(=O)[C@@H](CO)NC(=O)c1cnc2ccccc2c1)C(=O)N[C@@H](CC(C)C)C(=O)N[C@@H](CCCNC(=N)N)C(=O)N1CCC[C@H]1C(=O)N[C@H](C)C(N)=O` [Example 50d, NAc-D2Nal^1 -D4ClPhe^2 -D3Pal^3 -Ser^4 -NMeTyr^5 -DLys(N-epsilon-DSer-3-Quinolinyl)^6 -Leu^7 -Arg^8 -Pro^9 -DAla^10 NH2] (Ac-[d2Nal][dPhe(4-Cl)][d3Pal]S[NMeY][dK]([dS-Quinoline3carbonyl])LRP[dA]-NH2), the Kb was 0.0479 nM.
